According to patent publication US4720543A, “1a-7-substituted derivatives of mitomycin and uses thereof” (priority 1985, dated 1988):

Key:
[1] = test system: Listeria Sp.; assay: antibiotic activity, bacterial growth inhibition in culture; type: cell-based; details: Listeria, 37° C. overnight, read-out: amount of bacterial growth inhibition (first figure)
Experimental: (§1) Bacteria were grown in a standard growth culture at pH 7.2. After the cultures were incubated at 37° C. overnight and diluted into fresh medium, controls and the test antibiotics dissolved in 0.3% hydroxy propylcellulose (HPC) were added at various concentrations and then reincubated overnight. The measure of antibiotic activity was determined by the amount of bacterial growth inhibition as shown by measurement of the optical density at 660 nm.

[2] = test system: Klebsiella Pneumonia; assay: as above; type: cell-based
Experimental: as §1

[3] = test system: W3100 (E. coli); assay: as above; type: cell-based
Experimental: as §1

[4] = test system: TA100 (Salmonella Sp.); assay: as above; type: cell-based
Experimental: as §1

[5] = test system: Pseudomonas Sp.; assay: as above; type: cell-based
Experimental: as §1

[6] = human bone marrow CFU-C assay; details: human, bone marrow cells
Experimental: (§2) The human bone marrow CFU-C assay measures human bone marrow cells committed to granulocyte-macrophage differentiation. This in vitro assay serves as a model for predicting the relative toxicity of an experimental drug on the granulocytic series of the bone marrow. […] Both drugs were dissolved in 0.5% DMSO, and nucleated human bone marrow cells were exposed in vitro (for 90 minutes at 37° C.) to varying concentrations of each drug. The cells were then plated in triplicate in 3% agar for the CFU-C assay, using GCT, (Giant Cell Tumor) extract (Gibco, Grand Island, N.Y.) as colony-stimulating factor.

[7] = test system: human bone marrow cells; assay: human bone marrow CFU-C assay
Experimental: as §2

[8] = test system: P388 leukemia; assay: murine P388 leukemia antitumor activity; type: in vivo
Experimental: The murine P388 leukemia system, maintained intraperitoneally in female DBA/2 mice, was used to evaluate antitumor activity.
The P388 antileukemic activity of the test compound (M-TAG) was assessed by mean survival days, percentage increased life span or %ILS, and number of survivors after 45 days. The %ILS was calculated as follows:
%ILS=(T-C)/C×100 where T is the mean survival days of the treated mice and C is the mean survival days of the untreated mice

[9] = approximate LD10 dose (M-TAG 250 mg/kg; mitomycin C 4 mg/kg), day one

For `CO[C@@]12[C@H](COC(N)=O)C3=C(C(=O)C(C)=C(N)C3=O)N1C[C@H]1[C@@H]2N1C(=S)N[C@@H]1O[C@H](COC(C)=O)[C@@H](OC(C)=O)[C@H](OC(C)=O)[C@H]1NC(C)=O` [M-TAG, 1a(N-2-acetamido-3,4,6-tri-O-acetyl-2-deoxy-D-glucopyranosylthiocarbamoyl)-mitomycin C], the inhibition at 4 µg/mL ([1]; 4.0 mcg/ml) was 26%, the inhibition at 40 µg/mL ([1]; 40 mcg/ml) was 92% and the inhibition at 400 µg/mL ([1]; 400 mcg/ml) was 100%. For the same compound, the “optical density at 660 nm (figure in parentheses)” value (“optical density at 660 nm” for short) ([2]; 0.04 mcg/ml) was 0.66, the “optical density at 660 nm” value ([2]; 0.4 mcg/ml) was 0.62 and the “optical density at 660 nm” value ([2]; 4.0 mcg/ml) was 0.59. For the same compound, the “optical density at 660 nm” value ([2]; 40 mcg/ml) was 0.40, the “optical density at 660 nm” value ([2]; 400 mcg/ml) was 0.04 and the inhibition at 0.04 µg/mL ([2]; Klebsiella pneumoniae, 0.04 mcg/ml, 37° C. overnight, read-out: amount of bacterial growth inhibition (first figure)) was 22%. It also gave an inhibition at 0.4 µg/mL ([2]; Klebsiella pneumoniae, 0.4 mcg/ml, 37° C. overnight, read-out: amount of bacterial growth inhibition (first figure)) of 24%, an inhibition at 4 µg/mL ([2]; Klebsiella pneumoniae, 4.0 mcg/ml, 37° C. overnight, read-out: amount of bacterial growth inhibition (first figure)) of 26% and an inhibition at 40 µg/mL ([2]; Klebsiella pneumoniae, 40 mcg/ml, 37° C. overnight, read-out: amount of bacterial growth inhibition (first figure)) of 40%. The inhibition at 400 µg/mL ([2]; Klebsiella pneumoniae, 400 mcg/ml, 37° C. overnight, read-out: amount of bacterial growth inhibition (first figure)) was 92%, the “optical density at 660 nm” value ([3]; 0.04 mcg/ml) was 0.48 and the “optical density at 660 nm” value ([3]; 0.4 mcg/ml) was 0.51. For the same compound, the “optical density at 660 nm” value ([3]; 4.0 mcg/ml) was 0.30, the “optical density at 660 nm” value ([3]; 40 mcg/ml) was 0.07 and the “optical density at 660 nm” value ([3]; 400 mcg/ml) was 0.04. The inhibition at 0.04 µg/mL ([3]; Escherichia coli, 0.04 mcg/ml, 37° C. overnight, read-out: amount of bacterial growth inhibition (first figure)) was 33%, the inhibition at 0.4 µg/mL ([3]; Escherichia coli, 0.4 mcg/ml, 37° C. overnight, read-out: amount of bacterial growth inhibition (first figure)) was 31% and the inhibition at 4 µg/mL ([3]; Escherichia coli, 4.0 mcg/ml, 37° C. overnight, read-out: amount of bacterial growth inhibition (first figure)) was 50%. For the same compound, the inhibition at 40 µg/mL ([3]; Escherichia coli, 40 mcg/ml, 37° C. overnight, read-out: amount of bacterial growth inhibition (first figure)) was 86%, the inhibition at 400 µg/mL ([3]; Escherichia coli, 400 mcg/ml, 37° C. overnight, read-out: amount of bacterial growth inhibition (first figure)) was 92% and the “optical density at 660 nm” value ([4]; 0.04 mcg/ml) was 0.34. For the same compound, the “optical density at 660 nm” value ([4]; 0.4 mcg/ml) was 0.11, the “optical density at 660 nm” value ([4]; 4.0 mcg/ml) was 0.97 and the “optical density at 660 nm” value ([4]; 40 mcg/ml) was 0.97. The “optical density at 660 nm” value ([4]; 400 mcg/ml) was 0.02, the inhibition at 0.04 µg/mL ([4]; Salmonella, 0.04 mcg/ml, 37° C. overnight, read-out: amount of bacterial growth inhibition (first figure)) was 46% and the inhibition at 0.4 µg/mL ([4]; Salmonella, 0.4 mcg/ml, 37° C. overnight, read-out: amount of bacterial growth inhibition (first figure)) was 78%. For the same compound, the inhibition at 4 µg/mL ([4]; Salmonella, 4.0 mcg/ml, 37° C. overnight, read-out: amount of bacterial growth inhibition (first figure)) was 80%, the inhibition at 40 µg/mL ([4]; Salmonella, 40 mcg/ml, 37° C. overnight, read-out: amount of bacterial growth inhibition (first figure)) was 80% and the inhibition at 400 µg/mL ([4]; Salmonella, 400 mcg/ml, 37° C. overnight, read-out: amount of bacterial growth inhibition (first figure)) was 95%. For the same compound, the “optical density at 660 nm” value ([5]; 0.04 mcg/ml) was 0.52, the “optical density at 660 nm” value ([5]; 0.4 mcg/ml) was 0.35 and the “optical density at 660 nm” value ([5]; 4.0 mcg/ml) was 0.13. The “optical density at 660 nm” value ([5]; 40 mcg/ml) was 0.11, the “optical density at 660 nm” value ([5]; 400 mcg/ml) was 0.11 and the inhibition at 0.04 µg/mL ([5]; Pseudomonas, 0.04 mcg/ml, 37° C. overnight, read-out: amount of bacterial growth inhibition (first figure)) was 30%. The inhibition at 0.4 µg/mL ([5]; Pseudomonas, 0.4 mcg/ml, 37° C. overnight, read-out: amount of bacterial growth inhibition (first figure)) was 45%, the inhibition at 4 µg/mL ([5]; Pseudomonas, 4.0 mcg/ml, 37° C. overnight, read-out: amount of bacterial growth inhibition (first figure)) was 75% and the inhibition at 40 µg/mL ([5]; Pseudomonas, 40 mcg/ml, 37° C. overnight, read-out: amount of bacterial growth inhibition (first figure)) was 75%. The inhibition at 400 µg/mL ([5]; Pseudomonas, 400 mcg/ml, 37° C. overnight, read-out: amount of bacterial growth inhibition (first figure)) was 78%, the activity at 1.5 h, 100 µM [6] was 66% and the activity at 1.5 h, 500 µM [6] was 43%. For the same compound, the activity at 1.5 h, 1000 µM [6] was less than 20%, the “bone marrow toxicity compared to parent mitomycin-C (in words)” value [7] was “reduced bone marrow toxicity” and the “overall survivals, M-TAG versus mitomycin C at LD10 dose (in words)” value ([8]; LD10 dose) was “no statistical difference in the overall survivals”. For the same compound, the “% ILS” value [8, 9] was 85%, the “Mean Survival” value [8, 9] was 22 days and the “antitumor activity against murine P388 leukemia (in words)” value ([8]; mouse, in vivo) was “equivalent to that achieved with the parent mitomycin C”.
